# Test results taken from ChEMBL document CHEMBL1150315, “Potent and orally bioavailable zwitterion GnRH antagonists with low CYP3A4 inhibitory activity” (Bioorg Med Chem Lett, 2008).
# Assays:
# [1] = Tmax in cynomolgus monkey at 10 mg/kg, po; format: ADME, organism-based, Macaca fascicularis; set-up: dose 10 mg/kg, route oral; conditions: in vivo
# [2] = Lipophilicity, log D at pH 7.4; format: physicochemical; conditions: buffer
# [3] = Tmax in Sprague-Dawley rat at 10 mg/kg, po or 10 mg/kg, iv; format: ADME, organism-based; conditions: in vivo
# [4] = AUC in Sprague-Dawley rat at 10 mg/kg, po; format: ADME, organism-based; set-up: dose 10 mg/kg, route oral; conditions: plasma
# [5] = Clearance in cynomolgus monkey at 10 mg/kg, iv; format: ADME, organism-based, Macaca fascicularis; set-up: dose 10 mg/kg, route intravenous; conditions: in vivo
# [6] = Half life in Sprague-Dawley rat at 10 mg/kg, iv; format: ADME, organism-based; set-up: dose 10 mg/kg, route intravenous; conditions: in vivo
# [7] = Cmax in Sprague-Dawley rat at 10 mg/kg, po or 10 mg/kg, iv; format: ADME, organism-based; conditions: in vivo
# [8] = Cmax in cynomolgus monkey at 10 mg/kg, po; format: ADME, organism-based, Macaca fascicularis; set-up: dose 10 mg/kg, route oral; conditions: in vivo
# [9] = Clearance in Sprague-Dawley rat at 10 mg/kg, iv; format: ADME, organism-based; set-up: dose 10 mg/kg, route intravenous; conditions: in vivo
# [10] = AUC in cynomolgus monkey at 10 mg/kg, po; format: ADME, organism-based, Macaca fascicularis; set-up: dose 10 mg/kg, route oral; conditions: plasma
# [11] = Volume of distribution in cynomolgus monkey at 10 mg/kg, iv; format: ADME, organism-based, Macaca fascicularis; set-up: dose 10 mg/kg, route intravenous; conditions: in vivo
# [12] = Volume of distribution in Sprague-Dawley rat at 10 mg/kg, iv; format: ADME, organism-based; set-up: dose 10 mg/kg, route intravenous; conditions: in vivo
# [13] = Half life in cynomolgus monkey at 10 mg/kg, iv; format: ADME, organism-based, Macaca fascicularis; set-up: dose 10 mg/kg, route intravenous; conditions: in vivo
# [14] = Oral bioavailability in Sprague-Dawley rat at 10 mg/kg; format: ADME, organism-based; conditions: in vivo
# [15] = Oral bioavailability in cynomolgus monkey at 10 mg/kg; format: ADME, organism-based, Macaca fascicularis; conditions: in vivo
# [16] = Dissociation constant, pKa of the compound; format: physicochemical
Structure (SMILES),Tmax [1],logD [2],Tmax [3],AUC [4],clearance [5],half-life [6],Cmax [7],Cmax [8],clearance [9],AUC [10],Vd [11],Vd [12],half-life [13],bioavailability [14],bioavailability [15],pKa [16]
O=C(O)CCCN[C@@H](Cn1c(=O)c(-c2ccccc2Cl)cn(Cc2c(F)cccc2C(F)(F)F)c1=O)c1ccccc1,37.8 min,2.1,15 min,132 ng·h/mL,7.9 mL/min/kg,24 min,149 ng/mL,7870 ng/mL,37.6 mL/min/kg,11100 ng·h/mL,4.9 L/kg,1.3 L/kg,450 min,3%,52.7%,
COc1cccc(-c2cn(Cc3c(F)cccc3C(F)(F)F)c(=O)n(C[C@H](NCCCC(=O)O)c3ccccc3)c2=O)c1F,30 min,1.8,15 min,63.3 ng·h/mL,20.9 mL/min/kg,18 min,77 ng/mL,2040 ng/mL,64.1 mL/min/kg,1900 ng·h/mL,1.8 L/kg,1.7 L/kg,60 min,2.4%,22.6%,4.16
